# Measured values reported in patent US6288110A, “Pharmaceutical compositions comprising disulfiram” (Yeda Research and Development Co Ltd., priority 1998, dated 2001).
# Like-named read-outs stand apart in the source and are kept apart here.
# Columns and labels:
# [1] = tested on: aldolases; conditions: cited from earlier work
# [2] = tested on: BALB/MK keratinocytes; assay: DNA synthesis (3H-thymidine incorporation) in BALB/MK keratinocytes; type: cell-based, murine; conditions: for IC (maximal): Mus musculus, Keratinocyte
# Description: The BALB/MK epidermal keratinocyte cell line, kindly provided by Dr. S Aaronson (National Cancer Institute, Bethesda, Md., USA), was cultured (37° C., 10% CO2 humidified atmosphere) in calcium-free MEM (Beth Haemek, Israel) supplemented with 10% dialyzed FCS and murine EGF (5 ng/ml).
# (§1) Bovine capillary endothelial cells (BCE) and bovine aortic BSMC were plated in 24-well plates (6000 cells per well) in 500 μl DMEM medium supplemented with 10% Colorado calf serum (CCS) (GIBCO, USA) and GPS. After 24 hours, medium was changed to starvation medium (2% CCS, 0.5% BSA, GPS) for 24 hours. ^3 H-methyl-thymidine (5 μCi/ml) was added for the last 6 hours. DNA synthesis assays were performed as described above, in triplicates. DNA synthesis assays in BALB/MK keratinocytes were performed as previously described (Marikovsky, 1995).-DNA synthesis assays were performed in triplicates.
# (§2) Disulfiram was prepared in 0.1 mM stock solutions in DMSO. Control samples were incubated with the appropriate concentration of DMSO. Inhibition was calculated as percentage of DNA synthesis of control.
# (§3) To determine whether disulfiram acts directly on endothelial cells rather than on accessory cells such as macrophages and mast cells that can be responsible for the development of an angiogenic response in vivo, the effect of the drug on the growth of BCE cells was examined in vitro as described in section (c) of "Materials and Methods" above. DNA synthesis in BCE cells was measured in presence of increasing concentrations of disulfiram incubated for 24 hours with the cells. […] Maximal inhibitory activity (80%) for BSMC was at 0.5-1 μM disulfiram, while maximal inhibitory activity for C6 glioma cells or BALB/MK keratinocytes was at concentrations 10 fold higher (2-3 μM) than those for endothelial cells (0.2-0.5 μM).
# (§4) To examine the time course of the effect of disulfiram and whether the effect was reversible, cells were incubated with disulfiram for various periods of time (1, 2, 4 and 24 hours), then washed away and DNA synthesis was determined. One to 4 hours of exposure to disulfiram were enough to induce maximal inhibitory effect at concentrations ranging from 0.5 μM for BCE cells (FIG. 3A) to 5 μM for BALB/MK keratinocytes (FIG. 3C) and C6 glioma cells (FIG. 3D). […] BSMC were less sensitive as far as time course is concerned when incubated with 1 μM disulfiram. Following 4 hours of incubation with 1 μM disulfiram, DNA synthesis inhibition in BSMC reached only 50% (FIG. 3B). The data shown here indicate that the damage for capillary endothelial cells, following a short incubation of 1 to 2 hours, was maximal and that, at least in a time scale of 24 hours, this damage was non-reversible.
# [3] = tested on: neovascularization induced by bFGF; assay: Subcutaneous angiogenesis in nude mice (bFGF agarose bead), disulfiram per os; type: in vivo, CD1 nude male mice
# Description: FIGS. 1A-1C show inhibition of neovascularization in nude mice by disulfiram (D). […] Bar is one mm.
# Spherical agarose beads of approximately 1 mm in diameter were formed from 4% low gelling temperature agarose (Sigma) in PBS containing b-FGF or HB-EGF as angiogenic agent. The candidate angiogenic agent (10 μg/bead) was warmed in sterile microtest tubes to 40° C. in a dry-bath for a few seconds. 10 μl of agarose solution (6% in saline, 45° C.) were then added to 5 μl of the angiogenic compound and beads were formed above ice using a 20 μl pipette tip. Beads were implanted subcutaneously 1 cm away from the incision-site as reported previously for multicellular spheroids (Abramovitch, 1995) in mice anesthetized with a single dose of 75 mg/kg ketamine+3 mg/kg xylazine (i.p.). Experiments were carried out for 4 days in CD1 nude male mice. Each day one ml of aqueous solutions with or without 0.1-0.25 mM (25-60 μg) disulfiram was introduced per os to the mice using a feeding needle. Treatment was for three days starting from the day of bead implantation until one day before termination. Experiments were done in quadruplicates and repeated three times.
# Agarose beads containing the angiogenic factor bFGF (10 μg/bead) were implanted subcutaneously into CD1 nude mice as described in section (d) of "Materials and Methods" above. […]
# [4] = tested on: mammary tumors; conditions: N-2-fluorenylacetamide or N-hydroxy-N-2-fluorenylacetamide, rats; cited from earlier work
# [5] = tested on: Meth A tumor cell; conditions: together with ascorbic acid, in vitro; cited from earlier work
# [6] = tested on: ifosfamide- and cyclophosphamide-induced urotoxicity; conditions: administered simultaneously with ifosfamide or cyclophosphamide, mice; cited from earlier work
# [7] = tested on: bovine capillary endothelial cells (BCE); assay: DNA synthesis (3H-thymidine incorporation) in BCE cells; type: cell-based
# Description: Brain bovine capillary endothelial cells (BCE) and bovine vascular smooth muscle cells (BSMC), kindly provided by Prof. Israel Vlodavsky (Hadassah Medical School, Jerusalem, Israel), were cultured at 37° C. in low glucose DMEM (1 g/liter) supplemented with 10% calf serum (HyClone, Logan, Utah, U.S.A.), a serum-free supplement: biogro-1 (Beth Haemek, Israel) and GPS.
# as §1, §2, §3, §4
# [8] = tested on: neoplasia of the large bowl; conditions: 1,2-dimethylhydrazine; cited from earlier work
smiles,measurement,setting,value
"CCN(CC)C(=S)SSC(=S)N(CC)CC [disulfiram, Bis(diethylthiocarbamoyl) disulfide]",inhibition of aldolases,[1],inhibit
same,"maximal inhibitory concentration relative to endothelial cells, fold higher",[2]; BALB/MK vs endothelial cells (0.2-0.5 μM),10 fold
same,persistence of inhibitory effect after short exposure,"[2]; MK, 24 hours following short exposure",inhibitory effect seemed to be maintained
same,IC (maximal),"[2]; BALB/MK keratinocytes, read-out: concentration of maximal inhibitory activity (DNA synthesis)",2 to 3 µM
same,IC (maximal),"[2]; BALB/MK, 1 to 4 hours of exposure, washed, read-out: concentration inducing maximal inhibitory effect on DNA synthesis, short exposure",5 µM
same,inhibition of neovascularization induced by bFGF inside and around the bead,"[3]; 60 μg/mouse systemically, 4 days after implantation",inhibited almost completely
same,angiogenesis around the beads containing bFGF,"[3]; 25-60 μg/mouse/day per os, 3 days (1 ml of 0.1-0.25 mM)",clearly inhibited
same,incidence of mammary tumors,[4],reduce the incidence of mammary tumors
same,inhibition of Meth A tumor cell proliferation,[5],augmented inhibition
same,protection against urotoxicity,[6],protect mice
same,inhibition of DNA synthesis in BCE cells (in words),"[7]; 0.1-0.5 μM, 24 hours",inhibit DNA synthesis in BCE cells in a dose dependent manner
same,reversibility of damage for capillary endothelial cells,"[7]; 1 to 2 hours incubation, time scale of 24 hours",non-reversible
same,concentration used in vitro for endothelial cells (inhibition of growth),[7]; BCE,0.1 to 0.2 µM
same,"inhibition of DNA synthesis, short incubation (in words)","[7]; BCE, 0.5 μM, 1-2 hours of incubation",near maximal inhibition of DNA synthesis
same,persistence of inhibitory effect after short exposure,"[7]; BCE, 24 hours following short exposure",inhibitory effect seemed to be maintained
same,IC (maximal),"[7]; Bos taurus, Endothelial cell, BCE (endothelial cells), 24 hours, read-out: concentration of maximal inhibitory activity (DNA synthesis)",0.2 to 0.5 µM
same,IC (maximal),"[7]; Bos taurus, Endothelial cell, BCE, 1 to 4 hours of exposure, washed, read-out: concentration inducing maximal inhibitory effect on DNA synthesis, short exposure",0.5 µM
same,IC100,"[7]; Bos taurus, Endothelial cell, BCE, 24 hours, read-out: concentration of complete inhibition of DNA synthesis",0.5 µM
same,interference with neoplasia of the large bowl,[8],interfere with induction of cancer
